From ChEMBL document CHEMBL1201862, “PubChem BioAssay data set” (2004)
The source made the active and inactive calls.

What was measured:
[1] = inhibitors of PGC1a acetylation in cells, dose response, cell-based, cherry-picked samples (AID 720514); format: functional;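 note: potency may reflect raised or lowered acetylation signal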
[2] = tested on: Streptococcus sp. 'group A'; assay: growth inhibition of control SK(-) GAS strain, dose response, counter-screen for streptokinase expression inhibitor project, luminescence, kanamycin, BacTiterGlo, confirmation (AID 1900); format: functional, organism-based
[3] = Luminescence Cell-Based Dose Retest to Confirm Inhibitors of Cancer Stem Cells. [Related pubchem assays (depositor defined):AID2717, AID2721]; format: functional; settings: Homo sapiens
Streptococcus = assay: Group A Streptococcus viability loss, dose response, counter-screen for streptokinase expression inhibitor project, luminescence, BacTiterGlo (AID 1915); format: functional, organism-based;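 note: potency for reduction of bacterial viability or growth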
Streptokinase A = target: T1, Streptokinase A (Streptococcus pyogenes serotype M1, UniProt P10520); assay: S. pyogenes streptokinase expression inhibitors, potency, dose response, plasminogen activation absorbance, OD405 (AID 1914); format: functional, Streptococcus pyogenes M1 GAS;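 note: secreted streptokinase activity via plasminogen activation per viability signal from cell pellet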
T1 sequence (P10520 whole entry): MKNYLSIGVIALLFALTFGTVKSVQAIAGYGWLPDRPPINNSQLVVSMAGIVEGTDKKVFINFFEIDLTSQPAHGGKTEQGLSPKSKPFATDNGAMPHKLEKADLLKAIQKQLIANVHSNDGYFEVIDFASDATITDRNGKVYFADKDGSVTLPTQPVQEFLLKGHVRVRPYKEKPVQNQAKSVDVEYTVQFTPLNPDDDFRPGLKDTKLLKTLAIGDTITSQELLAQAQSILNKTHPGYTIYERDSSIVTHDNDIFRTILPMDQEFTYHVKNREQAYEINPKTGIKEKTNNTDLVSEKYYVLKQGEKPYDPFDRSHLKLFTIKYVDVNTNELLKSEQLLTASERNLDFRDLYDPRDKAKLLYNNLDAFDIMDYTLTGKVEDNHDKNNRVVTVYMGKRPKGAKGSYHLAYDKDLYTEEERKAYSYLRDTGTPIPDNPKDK

[4] = inhibitors of Vif binding to APOBEC3G peptide, primary screen, biochemical, TR-FRET, GST-Vif 1-94, biotin-A3G peptide, dose response retest (AID 1117319); format: functional;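 note: TR-FRET signal of purified GST-Vif binding a biotinylated A3G peptide; inhibitors lower the FRET signal by blocking Vif and A3G binding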
Coagulation factor XII = target: T2, Coagulation factor XII (Homo sapiens, UniProt P00748); format: functional;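 note: activated factor XIIa alpha cleaving a fluorogenic AMC peptide substrate; inhibitor potency from loss of enzyme activity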
T2 sequence (P00748 whole entry): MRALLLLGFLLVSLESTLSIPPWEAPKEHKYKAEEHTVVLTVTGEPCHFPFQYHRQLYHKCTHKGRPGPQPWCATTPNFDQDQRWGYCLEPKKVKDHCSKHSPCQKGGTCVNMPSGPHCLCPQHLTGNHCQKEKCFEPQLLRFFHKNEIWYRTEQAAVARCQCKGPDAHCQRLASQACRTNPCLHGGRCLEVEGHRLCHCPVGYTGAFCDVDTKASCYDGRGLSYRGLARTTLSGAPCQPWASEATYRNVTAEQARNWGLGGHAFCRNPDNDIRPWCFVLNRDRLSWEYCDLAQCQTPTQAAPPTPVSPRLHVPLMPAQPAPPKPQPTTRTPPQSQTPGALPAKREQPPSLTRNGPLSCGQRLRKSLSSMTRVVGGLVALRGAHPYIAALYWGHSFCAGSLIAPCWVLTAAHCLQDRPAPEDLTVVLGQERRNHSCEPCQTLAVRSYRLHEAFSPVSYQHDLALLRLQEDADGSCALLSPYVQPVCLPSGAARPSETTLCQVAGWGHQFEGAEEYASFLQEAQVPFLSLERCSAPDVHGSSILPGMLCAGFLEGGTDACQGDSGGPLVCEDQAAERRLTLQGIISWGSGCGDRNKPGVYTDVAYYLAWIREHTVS

[5] = M. tuberculosis H37Rv growth inhibitors, H37Rv strain (AID 1626); format: functional
Estrogen receptor beta [6] = target: T3, Estrogen receptor beta (Homo sapiens, UniProt Q92731);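 note: recombinant ER-beta bound to coactivator SRC1 peptide in presence of estradiol agonist; inhibitors block coactivator peptide binding and lower the FRET signal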
Estrogen receptor beta [7] = target: T3, Estrogen receptor beta; assay: ERβ–SRC-3 coactivator interaction inhibitors, confirmation, orthogonal assay, biochemical, ELISA, streptavidin-HRP readout (AID 1060)
[8] = target: Voltage-dependent T-type calcium channel subunit alpha-1H (Homo sapiens, UniProt O95180); format: functional;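 note: channel activity triggered by adding a high calcium stimulation buffer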
[9] = HEK293T cytotoxicity, dose response, cytotoxicity control for miR-122 modulator project, cell-based, inhibitor set, cherry-pick, set 2 (AID 720697); format: functional
Protein skinhead-1 = target: T4, Protein skinhead-1 (Caenorhabditis elegans, UniProt P34707); format: functional
T4 sequence (P34707 whole entry): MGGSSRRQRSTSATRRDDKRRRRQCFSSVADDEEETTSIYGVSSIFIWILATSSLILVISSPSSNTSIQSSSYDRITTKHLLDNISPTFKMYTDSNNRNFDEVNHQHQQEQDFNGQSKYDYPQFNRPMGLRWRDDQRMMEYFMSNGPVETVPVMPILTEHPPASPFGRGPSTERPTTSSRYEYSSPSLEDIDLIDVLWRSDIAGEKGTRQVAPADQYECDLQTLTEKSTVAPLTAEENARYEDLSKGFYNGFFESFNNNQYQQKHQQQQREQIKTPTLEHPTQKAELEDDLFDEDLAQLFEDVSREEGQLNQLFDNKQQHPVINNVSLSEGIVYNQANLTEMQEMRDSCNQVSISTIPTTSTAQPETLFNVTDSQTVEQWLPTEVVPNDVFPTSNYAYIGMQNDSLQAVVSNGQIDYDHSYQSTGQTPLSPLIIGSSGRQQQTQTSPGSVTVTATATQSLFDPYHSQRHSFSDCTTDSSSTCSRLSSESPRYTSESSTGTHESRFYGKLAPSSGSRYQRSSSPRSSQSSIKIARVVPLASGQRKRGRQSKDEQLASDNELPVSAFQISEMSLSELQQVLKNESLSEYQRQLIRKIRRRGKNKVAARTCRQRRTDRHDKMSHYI

Estrogen receptor = target: T5, Estrogen receptor (Homo sapiens, UniProt P03372);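 note: potency for inhibiting coactivator peptide recruitment to the receptor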
T5 sequence (P03372 whole entry): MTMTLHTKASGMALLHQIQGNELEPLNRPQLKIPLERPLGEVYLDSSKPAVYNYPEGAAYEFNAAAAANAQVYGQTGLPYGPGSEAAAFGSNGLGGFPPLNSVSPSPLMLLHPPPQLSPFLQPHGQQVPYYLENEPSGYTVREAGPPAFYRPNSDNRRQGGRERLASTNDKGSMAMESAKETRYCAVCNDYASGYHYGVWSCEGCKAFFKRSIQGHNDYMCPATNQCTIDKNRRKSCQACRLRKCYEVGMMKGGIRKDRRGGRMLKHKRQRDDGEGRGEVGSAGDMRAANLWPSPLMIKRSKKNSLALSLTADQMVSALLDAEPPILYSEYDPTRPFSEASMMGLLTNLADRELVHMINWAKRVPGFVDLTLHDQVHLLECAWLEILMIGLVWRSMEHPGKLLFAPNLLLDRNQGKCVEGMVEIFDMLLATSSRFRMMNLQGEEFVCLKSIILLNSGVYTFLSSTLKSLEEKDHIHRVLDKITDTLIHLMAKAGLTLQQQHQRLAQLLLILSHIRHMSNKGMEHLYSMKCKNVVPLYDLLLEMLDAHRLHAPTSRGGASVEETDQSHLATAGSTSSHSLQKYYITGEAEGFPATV

cells [10] = format: functional, cell-based
cells [11] = format: functional, cell-based; remark: listed apart in the source
[12] = target: T6, Mannose-6-phosphate isomerase (Homo sapiens, UniProt P34949); assay: human PMI inhibitors, high substrate, primary screen, biochemical, fluorescence intensity, high mannose 6-phosphate (AID 1220)
T6 sequence (P34949 whole entry): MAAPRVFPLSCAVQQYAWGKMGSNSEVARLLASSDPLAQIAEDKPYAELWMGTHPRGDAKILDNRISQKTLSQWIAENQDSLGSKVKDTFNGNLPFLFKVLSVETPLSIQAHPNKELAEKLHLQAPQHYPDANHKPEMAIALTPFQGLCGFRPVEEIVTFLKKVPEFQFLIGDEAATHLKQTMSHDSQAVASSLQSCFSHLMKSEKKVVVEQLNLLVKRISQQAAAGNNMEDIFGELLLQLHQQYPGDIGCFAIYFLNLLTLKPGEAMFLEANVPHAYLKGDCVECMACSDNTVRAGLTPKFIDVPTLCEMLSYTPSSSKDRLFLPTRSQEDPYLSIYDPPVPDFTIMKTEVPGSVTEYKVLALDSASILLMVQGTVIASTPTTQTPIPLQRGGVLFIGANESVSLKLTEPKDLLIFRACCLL

[13] = target: Disintegrin and metalloproteinase domain-containing protein 17 (Homo sapiens, UniProt P78536); assay: exosite inhibitors of ADAM17, dose response, biochemical (AID 743260)
[14] = ADAM10 protease inhibitors, dose response, selectivity assay for ADAM17 exosite inhibitor project, biochemical, FRET peptide substrate, recombinant human ADAM10 (AID 743259);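 note: ADAM10 enzyme cleaving a FRET peptide substrate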
[15] = target: Induced myeloid leukemia cell differentiation protein Mcl-1 (Homo sapiens, UniProt Q07820); format: functional
cells [16] = format: functional, cell-based; remark: listed apart in the source
[17] = inhibitors of SNCA 5'UTR-driven reporter translation, confirmation, H4 neuroglioma cells, luminescence (AID 1988); format: functional, cell-based
[18] = THP-1 cell cytotoxicity, dose response, cytotoxicity control for Vif-APOBEC3G degradation inhibitor project, THP-1 cells (AID 1117359); format: functional; settings: Human immunodeficiency virus 1, THP-1
[19] = NIH-3T3 fibroblast cytotoxicity, dose response, cytotoxicity control, cell-based, fluorescence, Alamar Blue, secondary assay (AID 2327); format: functional;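 note: NIH-3T3 mouse fibroblasts cultured with fluconazole at 8 µg/mL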
cells [20] = format: functional, cell-based; remark: listed apart in the source
[21] = inhibitors of firefly luciferase expression or activity, dose response, H4 neuroglioma cells, luminescence (AID 1990); format: functional, cell-based
Vero = Vero cell cytotoxicity, cytotoxicity control for flavivirus capping enzyme inhibitors (AID 588742); format: functional; settings: Chlorocebus sabaeus
[22] = Luminescence Cell-Based Dose Response HTS to Identify Inhibitors of 5'UTR Stem-Loop Driven Prion Protein mRNA Translation in H4 Neuroglioblastoma Cells. [Related pubchem assays: 1827 (Project Summary), 1813 (Primary HTS)]; format: functional
[23] = C. albicans growth with fluconazole, confirmation, fluorescence, retest (AID 2467); format: functional, cell-based
Genome polyprotein = Genome polyprotein (dengue virus type 2, UniProt P29990); assay: Dengue-2 NS5 methyltransferase inhibitors, primary screen, biochemical, confirmation dose response (AID 588689); format: functional
Chain of Genome polyprotein (P29990 2492-3391 limits assumed): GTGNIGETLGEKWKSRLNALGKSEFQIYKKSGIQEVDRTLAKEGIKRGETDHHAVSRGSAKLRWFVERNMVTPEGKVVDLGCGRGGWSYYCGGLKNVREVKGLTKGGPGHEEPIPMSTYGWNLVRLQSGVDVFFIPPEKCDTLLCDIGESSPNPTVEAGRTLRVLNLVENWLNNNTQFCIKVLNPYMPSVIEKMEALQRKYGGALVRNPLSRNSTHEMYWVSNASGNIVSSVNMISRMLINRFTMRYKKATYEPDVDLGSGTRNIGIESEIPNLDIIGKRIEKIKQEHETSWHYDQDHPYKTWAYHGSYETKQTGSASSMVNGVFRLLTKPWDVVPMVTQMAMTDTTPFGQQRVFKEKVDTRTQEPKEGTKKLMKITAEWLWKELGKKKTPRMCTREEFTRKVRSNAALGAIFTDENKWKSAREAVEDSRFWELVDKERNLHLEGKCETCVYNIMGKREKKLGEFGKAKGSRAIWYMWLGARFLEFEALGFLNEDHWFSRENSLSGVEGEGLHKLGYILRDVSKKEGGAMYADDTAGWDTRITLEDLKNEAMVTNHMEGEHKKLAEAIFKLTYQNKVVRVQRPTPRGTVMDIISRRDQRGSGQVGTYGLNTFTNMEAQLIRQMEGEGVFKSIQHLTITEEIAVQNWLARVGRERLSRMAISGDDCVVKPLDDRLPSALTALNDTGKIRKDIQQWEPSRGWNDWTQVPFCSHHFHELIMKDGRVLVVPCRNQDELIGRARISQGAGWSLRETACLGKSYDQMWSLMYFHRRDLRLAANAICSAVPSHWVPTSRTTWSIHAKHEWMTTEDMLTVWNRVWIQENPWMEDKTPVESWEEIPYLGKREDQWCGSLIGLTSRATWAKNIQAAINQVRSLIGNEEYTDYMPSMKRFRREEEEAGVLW

Chain of Disintegrin and metalloproteinase domain-containing protein 17 (P78536 whole entry, the tested form may be a part): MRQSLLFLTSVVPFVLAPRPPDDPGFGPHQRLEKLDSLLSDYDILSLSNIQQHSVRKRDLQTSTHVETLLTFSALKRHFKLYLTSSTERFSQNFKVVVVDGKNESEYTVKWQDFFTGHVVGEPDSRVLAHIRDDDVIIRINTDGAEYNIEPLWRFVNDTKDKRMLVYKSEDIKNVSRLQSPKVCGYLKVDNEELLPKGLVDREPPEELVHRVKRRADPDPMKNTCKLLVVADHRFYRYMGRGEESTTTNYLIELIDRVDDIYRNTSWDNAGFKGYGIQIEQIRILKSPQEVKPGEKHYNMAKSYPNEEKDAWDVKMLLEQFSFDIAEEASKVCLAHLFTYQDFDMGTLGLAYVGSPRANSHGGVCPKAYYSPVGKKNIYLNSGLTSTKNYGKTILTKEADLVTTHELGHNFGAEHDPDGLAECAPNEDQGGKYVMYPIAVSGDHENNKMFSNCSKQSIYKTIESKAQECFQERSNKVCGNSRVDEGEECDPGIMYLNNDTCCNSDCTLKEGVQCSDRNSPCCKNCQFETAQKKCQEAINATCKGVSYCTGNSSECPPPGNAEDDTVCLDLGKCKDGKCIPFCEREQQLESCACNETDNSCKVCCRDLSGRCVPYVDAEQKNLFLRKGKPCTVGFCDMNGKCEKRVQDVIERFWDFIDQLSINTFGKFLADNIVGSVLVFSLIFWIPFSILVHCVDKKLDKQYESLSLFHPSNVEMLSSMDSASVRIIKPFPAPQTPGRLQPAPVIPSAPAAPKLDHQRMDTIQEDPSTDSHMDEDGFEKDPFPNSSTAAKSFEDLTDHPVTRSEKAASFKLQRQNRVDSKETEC
T3 sequence (Q92731 whole entry): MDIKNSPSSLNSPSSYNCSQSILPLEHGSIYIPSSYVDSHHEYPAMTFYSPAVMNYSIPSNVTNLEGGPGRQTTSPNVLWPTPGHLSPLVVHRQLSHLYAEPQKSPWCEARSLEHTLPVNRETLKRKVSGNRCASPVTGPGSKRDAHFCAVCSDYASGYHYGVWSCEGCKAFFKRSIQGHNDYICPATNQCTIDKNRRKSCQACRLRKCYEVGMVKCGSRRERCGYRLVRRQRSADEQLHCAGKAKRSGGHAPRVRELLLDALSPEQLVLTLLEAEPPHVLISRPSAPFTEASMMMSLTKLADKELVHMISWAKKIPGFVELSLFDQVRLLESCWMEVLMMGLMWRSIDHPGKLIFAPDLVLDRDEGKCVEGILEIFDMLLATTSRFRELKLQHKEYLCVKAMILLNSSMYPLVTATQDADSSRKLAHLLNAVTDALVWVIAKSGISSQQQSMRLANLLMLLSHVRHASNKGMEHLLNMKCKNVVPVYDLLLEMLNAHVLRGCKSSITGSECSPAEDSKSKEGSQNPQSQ
Chain of Induced myeloid leukemia cell differentiation protein Mcl-1 (Q07820 whole entry): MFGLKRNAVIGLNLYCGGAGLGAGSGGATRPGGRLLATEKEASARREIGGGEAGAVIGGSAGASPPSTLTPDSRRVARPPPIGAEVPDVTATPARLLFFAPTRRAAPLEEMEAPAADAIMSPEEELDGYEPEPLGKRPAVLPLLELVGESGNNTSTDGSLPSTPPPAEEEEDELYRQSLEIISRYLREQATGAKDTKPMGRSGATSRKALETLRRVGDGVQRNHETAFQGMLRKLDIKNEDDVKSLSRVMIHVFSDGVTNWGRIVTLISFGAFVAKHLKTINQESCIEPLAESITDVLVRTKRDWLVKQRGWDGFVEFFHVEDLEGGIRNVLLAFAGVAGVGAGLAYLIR
Chain of Voltage-dependent T-type calcium channel subunit alpha-1H (O95180 whole entry): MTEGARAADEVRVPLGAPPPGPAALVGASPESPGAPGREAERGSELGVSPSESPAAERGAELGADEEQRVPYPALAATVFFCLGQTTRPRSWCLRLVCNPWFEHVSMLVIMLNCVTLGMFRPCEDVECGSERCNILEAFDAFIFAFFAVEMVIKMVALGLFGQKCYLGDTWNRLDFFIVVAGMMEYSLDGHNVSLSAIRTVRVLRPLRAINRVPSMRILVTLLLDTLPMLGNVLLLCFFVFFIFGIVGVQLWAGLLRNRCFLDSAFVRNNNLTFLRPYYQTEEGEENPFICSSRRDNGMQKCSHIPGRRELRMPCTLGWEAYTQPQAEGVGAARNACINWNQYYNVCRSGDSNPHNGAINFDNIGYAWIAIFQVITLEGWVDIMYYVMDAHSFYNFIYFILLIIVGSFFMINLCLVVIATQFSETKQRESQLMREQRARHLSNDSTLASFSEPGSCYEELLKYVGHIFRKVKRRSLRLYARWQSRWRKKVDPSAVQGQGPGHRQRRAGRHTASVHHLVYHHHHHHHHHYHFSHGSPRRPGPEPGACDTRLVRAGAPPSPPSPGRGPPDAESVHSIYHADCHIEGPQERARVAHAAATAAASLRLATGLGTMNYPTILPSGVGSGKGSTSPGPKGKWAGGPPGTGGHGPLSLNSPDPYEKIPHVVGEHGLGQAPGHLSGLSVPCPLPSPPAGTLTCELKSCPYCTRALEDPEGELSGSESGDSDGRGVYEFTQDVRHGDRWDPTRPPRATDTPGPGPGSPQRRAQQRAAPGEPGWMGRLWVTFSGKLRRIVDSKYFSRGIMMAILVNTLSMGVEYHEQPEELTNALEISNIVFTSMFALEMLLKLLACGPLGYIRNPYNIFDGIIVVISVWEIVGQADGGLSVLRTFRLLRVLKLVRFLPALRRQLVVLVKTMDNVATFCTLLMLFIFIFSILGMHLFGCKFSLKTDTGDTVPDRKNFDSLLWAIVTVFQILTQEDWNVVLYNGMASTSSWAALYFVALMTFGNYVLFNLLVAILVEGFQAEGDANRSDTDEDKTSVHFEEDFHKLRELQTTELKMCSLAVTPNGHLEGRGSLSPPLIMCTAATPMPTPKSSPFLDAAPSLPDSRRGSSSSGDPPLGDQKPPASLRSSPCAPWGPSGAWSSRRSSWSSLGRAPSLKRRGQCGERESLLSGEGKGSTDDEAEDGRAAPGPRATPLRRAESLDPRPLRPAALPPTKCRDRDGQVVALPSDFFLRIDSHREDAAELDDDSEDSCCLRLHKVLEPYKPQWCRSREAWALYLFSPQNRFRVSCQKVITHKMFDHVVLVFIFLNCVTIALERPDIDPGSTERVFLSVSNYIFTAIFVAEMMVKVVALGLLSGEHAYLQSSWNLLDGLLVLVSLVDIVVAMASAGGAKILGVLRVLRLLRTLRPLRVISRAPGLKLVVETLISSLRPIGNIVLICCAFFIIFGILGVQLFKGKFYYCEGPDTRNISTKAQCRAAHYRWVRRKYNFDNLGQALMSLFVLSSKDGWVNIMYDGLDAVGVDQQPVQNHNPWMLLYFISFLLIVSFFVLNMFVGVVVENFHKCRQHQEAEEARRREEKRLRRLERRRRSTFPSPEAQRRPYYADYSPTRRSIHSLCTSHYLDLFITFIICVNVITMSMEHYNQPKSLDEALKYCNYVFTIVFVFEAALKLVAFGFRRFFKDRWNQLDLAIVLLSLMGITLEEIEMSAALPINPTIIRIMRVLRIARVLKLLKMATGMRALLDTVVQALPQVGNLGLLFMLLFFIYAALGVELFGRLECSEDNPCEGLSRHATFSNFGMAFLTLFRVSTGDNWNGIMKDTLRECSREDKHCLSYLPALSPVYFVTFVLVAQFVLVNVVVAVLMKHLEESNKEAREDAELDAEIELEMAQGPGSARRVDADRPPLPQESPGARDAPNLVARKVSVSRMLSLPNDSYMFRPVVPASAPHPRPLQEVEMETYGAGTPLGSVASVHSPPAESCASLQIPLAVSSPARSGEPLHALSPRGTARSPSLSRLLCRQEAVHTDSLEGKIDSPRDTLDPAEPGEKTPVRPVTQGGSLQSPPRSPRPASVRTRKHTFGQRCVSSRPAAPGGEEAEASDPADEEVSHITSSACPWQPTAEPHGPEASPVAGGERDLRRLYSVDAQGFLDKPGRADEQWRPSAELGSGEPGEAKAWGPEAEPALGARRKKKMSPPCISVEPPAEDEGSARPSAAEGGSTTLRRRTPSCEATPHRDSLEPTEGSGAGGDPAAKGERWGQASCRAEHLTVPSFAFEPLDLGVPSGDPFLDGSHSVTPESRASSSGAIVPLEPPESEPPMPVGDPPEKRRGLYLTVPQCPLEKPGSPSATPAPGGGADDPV

O=C(Nc1ccccc1)Nc1cc(Cl)cc(Cl)c1
AC50 [1]: 17.2 µM (active)
EC50 [2]: 10.6 µM (active)
AC50 [3]: 4.3 µM (active)
EC50 (Streptococcus): 48.6 µM (active)
EC50 (Streptokinase A): 16.8 µM (active)

Cc1cc(-n2ccnc2)n2c(nc3ccccc32)c1C#N
IC50 [4]: > 100 µM (active)
IC50 (Coagulation factor XII): > 50 µM (inactive)

Cc1ccc(NC(=O)C2CCCCC2C(=O)O)cc1Cl (stereo not drawn)
IC50 [5]: > 100 µM (active)

O=C(/C=C/Nc1ccc(Oc2ccccc2Cl)cc1)c1ccco1
IC50 [5]: > 100 µM (active)

O=C(Cn1nnc(-c2ccc3c(c2)OCO3)n1)NCc1ccco1
IC50 (Estrogen receptor beta [6]): 19.6 µM (active)
IC50 (Estrogen receptor beta [7]): 3 µM (not active)

O=C(Nc1ccc(Cl)c(C(F)(F)F)c1)c1ccco1
EC50 [8]: 10.6 µM (active)
AC50 [9]: 4.01 µM (active)
IC50 (Protein skinhead-1): 45 µM (active)

Cn1nnnc1SCC(=O)NCc1cccc(C(=O)O)c1
AC50 [1]: 10.5 µM (active)

COc1ccc(CCNC(=O)c2ccc(CN3CCC(Cc4ccccc4)CC3)cc2)cc1
IC50 [5]: > 100 µM (active)

COc1cc(C2C(C#N)=C(N)Oc3cc(C)oc(=O)c32)cc2c1OCO2 (stereo not drawn)
IC50 (Estrogen receptor beta [6]): 13.6 µM (active)
IC50 (Estrogen receptor): 26.2 µM (active)
IC50 (Estrogen receptor beta [7]): 9.24 µM (not active)

CCOC(=O)C1CCCN(C(=O)c2ccc(CS(=O)(=O)c3ccc(Br)cc3)o2)C1 (stereo not drawn)
IC50 [4]: > 100 µM (active)

CC(=O)Nc1ccc(NC(=O)Nc2ccccc2)cc1
IC50 (cells [10]): > 29.9 µM (inactive)
EC50 (cells [11]): > 29.9 µM (inactive)

COc1ccc(OCc2nn3c(-c4cccc(OC)c4)nnc3s2)cc1
IC50 [5]: > 100 µM (active)

Cn1c(C(=O)Nc2ccc3c(c2)OCO3)cc2c(=O)n(C)c3ccccc3c21
IC50 (Estrogen receptor beta [6]): > 50 µM (not active)
IC50 (Estrogen receptor): 22.6 µM (active)
IC50 (Estrogen receptor beta [7]): 0.0468 µM (not active)

Cc1sc2nc3ccc(N4CCCC4)nn3c(=O)c2c1C
IC50 [12]: > 50 µM (not active)

CCCCc1cc(=O)oc2cc(C)cc(OC(C)C(=O)O)c12 (stereo not drawn)
AC50 [9]: 1.08 µM (active)

CN(C)S(=O)(=O)c1cccc(NC(=O)COC(=O)c2cccc(S(=O)(=O)N3CCc4ccccc4C3)c2)c1
IC50 [13]: > 69.5 µM (inactive)
IC50 [14]: > 69.5 µM (inactive)

O=C1N(Cc2cccnc2)C[C@@H]2C[C@@H](c3ccc4nsnc4c3)N3CCC[C@@]123
IC50 [4]: > 100 µM (active)

Cc1cccc(N2CCN(C(=O)c3ccc(C[S+]([O-])Cc4ccc(Cl)cc4)o3)CC2)c1C (stereo not drawn)
IC50 [13]: > 69.5 µM (inactive)
IC50 [14]: > 7.72 µM (active)

Cn1ccnc1Sc1ccc(/C=N/NC(=O)c2ccccc2O)cc1[N+](=O)[O-]
IC50 [4]: > 100 µM (active)

O=C(C[C@@H]1C=C[C@H](NC(=O)Cc2ccccn2)[C@@H](CO)O1)NCCc1ccccc1
IC50 (cells [10]): > 29.9 µM (inactive)
EC50 (cells [11]): > 29.9 µM (inactive)

CO[C@H]1CN(C)C(=O)c2cc(NC(=O)c3ccccc3F)ccc2OC[C@@H](C)N(C)C[C@@H]1C
AC50 [9]: 10.6 µM (active)

O=C(CSc1nnc(COc2ccccc2)n1-c1ccc(Cl)cc1)Nc1ccccc1-c1ccccc1
IC50 [13]: > 69.5 µM (inactive)
IC50 [14]: > 69.5 µM (inactive)

Cc1cc(SCC(=O)N/N=C/c2ccc(O)c(O)c2O)c(C)cc1Br
EC50 [2]: 3.27 µM (active)
IC50 [15]: 5.65 µM (active)
EC50 (cells [16]): > 350 µM (not active)
EC50 [17]: 26.7 µM (active)
CC50 [18]: 2.57 µM (active)
EC50 [19]: > 150 µM (inconclusive)
IC50 [12]: > 50 µM (not active)
EC50 (cells [20]): 11.6 µM (active)
EC50 [21]: 11 µM (active)
CC50 (Vero): > 40 µM (active)
EC50 (Streptococcus): 6.34 µM (active)
EC50 [22]: 13.9 µM (active)
EC50 [23]: 1.45 µM (active)
IC50 (Genome polyprotein): 17.4 µM (active)
